Measured values taken from ChEMBL document CHEMBL6078615, “Sesquilignans: Current research and potential prospective” (Eur J Med Chem, 2024).
Converted amounts (≈) assume the structure as drawn.

System: not listed separately
Experiment: Antioxidant activity assessed as DPPH radical scavenging activity incubated for 30 mins by spectrophotometric analysis
Format: functional
Conditions: not given

SMILES | IC50 [µM]
CC(Cc1ccc(O)cc1)c1cc([C@H]2O[C@@H](c3ccc(O)c(O)c3)[C@H](C)[C@H]2C)ccc1O (some centres undefined) | 1.12
COc1cc([C@H]2OC[C@H]3[C@@H]2CO[C@@H]3c2cc(OC)c(O[C@@H](CO)[C@@H](OC)c3ccc(O)c(OC)c3)c(OC)c2)ccc1O | 55.8

System: K562
Experiment: Antiproliferative activity against human K562 cells assessed as reduction in cell viability incubated for 72 hrs by CCK-8 assay
Format: functional, cell-based
Conditions: K562, 72 h

SMILES | IC50 [µg/mL]
COc1cc([C@H]2Oc3c(OC)cc(C[C@H]4C(=O)OC[C@@H]4Cc4ccc(OC)c(OC)c4)cc3[C@@H]2CO)ccc1O | 38.5 (≈ 69.9 µM)
COc1cc(C[C@H]2COC(=O)[C@@H]2Cc2cc(OC)c3c(c2)[C@H](CO)[C@@H](c2ccc(O)c(OC)c2)O3)ccc1O | 53.5 (≈ 99.7 µM)
COc1cc(C[C@H]2C(=O)OC[C@@H]2Cc2cc(OC)c3c(c2)[C@H](CO)[C@@H](c2ccc(O)c(OC)c2)O3)ccc1O | 51.1 (≈ 95.2 µM)

System: HT-29
Experiment: Antiproliferative activity against human HT-29 cells assessed as reduction in cell viability after 72 hrs by MTS assay
Format: functional, cell-based
Conditions: HT-29, 72 h

SMILES | IC50 [µM]
COc1cc([C@H]2O[C@H](c3ccc4c(c3)OCO4)[C@H](C)[C@H]2C)ccc1O[C@H](C)[C@H](O)c1ccc2c(c1)OCO2 | 10

System: HL-60
Experiment: Antiproliferative activity against human HL-60 cells assessed as reduction in cell viability incubated for 72 hrs by MTT assay
Format: functional, cell-based
Conditions: HL-60, 72 h

SMILES | IC50 [µM]
COc1cc([C@@H](O)[C@@H](C)Oc2ccc([C@H]3O[C@@H](c4ccc(O)c(OC)c4)[C@H](C)[C@H]3C)cc2OC)ccc1O | 11

System: CNE-2
Experiment: Anticancer activity against human CNE-2 cells assessed as reduction in cell growth
Format: functional, cell-based
Conditions: not given

SMILES | EC50 [µg/mL]
COc1cc(CC(CO)C(CO)Cc2ccc(OC(CO)C(O)c3ccc(O)c(OC)c3)c(OC)c2)ccc1O (centres undefined) | 2.4 (≈ 4.3 µM)
COc1cc(C[C@@H](CO)[C@H](CO)Cc2cc(OC)c3c(c2)[C@H](CO)[C@@H](c2ccc(O)c(OC)c2)O3)ccc1O | 2 (≈ 3.7 µM)

System: HeLa
Experiment: Cytotoxicity against human HeLa cells assessed as reduction in cell viability incubated for 48 hrs by MTT assay
Format: functional, cell-based
Conditions: not given

SMILES | IC50 [µg/mL]
COc1cc(CC(CO)C(CO)Cc2ccc(OC(CO)C(O)c3ccc(O)c(OC)c3)c(OC)c2)ccc1O (centres undefined) | 195 (≈ 348 µM)
COc1cc(C[C@@H](CO)[C@H](CO)Cc2cc(OC)c3c(c2)[C@H](CO)[C@@H](c2ccc(O)c(OC)c2)O3)ccc1O | 114 (≈ 211 µM)

System: HepG2
Experiment: Cytotoxicity against human HepG2 cells assessed as reduction in cell viability by MTT assay
Format: functional, cell-based
Conditions: not given

SMILES | IC50 [µM]
COc1cc([C@@H](O)[C@@H](C)Oc2ccc([C@H]3O[C@@H](c4ccc(O)c(OC)c4)[C@H](C)[C@H]3C)cc2OC)ccc1O | 11

System: MCF7
Experiment: Cytotoxicity against human MCF7 cells assessed as reduction in cell viability incubated for 72 hrs by MTT assay
Format: functional, cell-based
Conditions: MCF7, 72 h

SMILES | IC50 [µM]
COc1ccc([C@@H]2O[C@H](c3ccc(OC)c(O[C@@H](C)[C@@H](OC)c4ccc(OC)c(O)c4)c3)[C@@H](C)[C@@H]2C)cc1O | 8.4
COc1cc([C@@H](O)[C@@H](C)Oc2ccc([C@H]3O[C@@H](c4ccc(O)c(OC)c4)[C@H](C)[C@H]3C)cc2OC)ccc1O | 9.8
COc1ccc([C@@H]2O[C@H](c3ccc(OC)c(O[C@H](C)[C@@H](O)c4ccc(O)c(OC)c4)c3)[C@H](C)[C@H]2C)cc1O | 8.8

System: RAW264.7
Experiment: Anti-inflammatory activity in mouse RAW264.7 cells assessed as inhibition of LPS-induced NO production pre-incubated for 2 hrs followed by LPS-stimulation for 22 hrs by Griess reaction assay
Format: functional
Parameters: concentration or dose not given beside the values
Conditions: time 24 hrs

SMILES | Activity [%]
C=CCc1ccc2c(c1)O[C@@H](c1ccc(O)c(O)c1)[C@H](Cc1cc(O)c(O)cc1CC=C)O2 | 9.87
COc1ccc([C@@H]2O[C@H](c3ccc(OC)c(O[C@@H](C)[C@@H](OC)c4ccc(OC)c(O)c4)c3)[C@@H](C)[C@@H]2C)cc1O | 18.1
Oc1ccc(/C=C/C[C@@H]2CC(C(O)c3ccc(O)cc3)CO[C@H]2c2ccc(O)cc2)cc1 (some centres undefined) | 33
COC[C@H]1c2cc(C[C@@H]3C(=O)OC[C@H]3Cc3ccc(O)c(OC)c3)ccc2O[C@@H]1c1ccc(O)c(OC)c1 | 8.59
COc1cc([C@@H](O)[C@@H](C)Oc2ccc([C@H]3O[C@@H](c4ccc(O)c(OC)c4)[C@H](C)[C@H]3C)cc2OC)ccc1O | 18.1
COc1ccc([C@@H](O)[C@@H](C)Oc2ccc([C@H]3O[C@H](c4ccc5c(c4)OCO5)[C@H](C)[C@H]3C)cc2OC)cc1OC | 2.62
COc1cc([C@@H]2c3c(cc(OC)c4c3[C@H](CO)[C@H](c3ccc(O)c(OC)c3)O4)C[C@H](CO)[C@H]2CO)ccc1O | 19.46
COc1cc([C@@H]2c3c(cc(OC)c4c3[C@H](CO)[C@H](c3ccc(O[C@@H]5O[C@H](CO)[C@@H](O)[C@H](O)[C@H]5O)c(OC)c3)O4)C[C@H](CO)[C@H]2CO)ccc1O | 64.82
COc1ccc([C@@H]2O[C@H](c3ccc(OC)c(O[C@H](C)[C@@H](O)c4ccc(O)c(OC)c4)c3)[C@H](C)[C@H]2C)cc1O | 18.1

System: BV-2
Experiment: Anti-inflammatory activity against mouse BV-2 cells assessed as inhibition of LPS-induced NO production at 10 uM pretreated for 2 hrs followed stimulated with LPS for 22 hrs by Griess reaction assay relative to control
Format: functional
Conditions: time 24 hrs

SMILES | inhibition at 10 µM [%]
COc1cc([C@H]2OC[C@H]3[C@@H]2CO[C@@H]3c2cc(OC)c3c(c2)[C@H](CO)[C@@H](c2ccc(O)c(OC)c2)O3)ccc1O | 50.7

System: BV-2
Experiment: Anti-inflammatory activity against mouse BV-2 cells assessed as inhibition of LPS-induced NO production pretreated for 2 hrs followed stimulated with LPS for 22 hrs by Griess reaction assay
Format: functional, cell-based
Conditions: not given

SMILES | IC50 [µM]
COc1cc(/C=C/C=O)cc2c1O[C@H](c1ccc3c(c1)[C@H](CO)[C@@H](c1ccc(O)cc1)O3)[C@H]2CO | 38.9
COc1cc([C@H]2OC[C@H]3[C@@H]2CO[C@@H]3c2cc(OC)c(OC)c(OC)c2)ccc1O[C@@H](CO)[C@H](O)c1cc(OC)c(OC)c(OC)c1 | 10.9
OC[C@@H]1Oc2ccc([C@H]3OC[C@H]4[C@@H]3CO[C@@H]4c3ccc(O)c(O)c3)cc2O[C@H]1c1ccc(O)c(O)c1 [PRINCEPIN] | 1.28

System: not listed separately
Experiment: Cytotoxicity against human HUVEC cells assessed as reduction in cell growth incubated for 48 hrs by CCK-8 method
Format: toxicity, cell-based
Conditions: not given

SMILES | IC50 at 48 h [µM]
COCc1c(-c2ccc(O)c(OC)c2)oc2c(OC)cc([C@H]3OC[C@@H]4[C@H]3CO[C@@H]4c3ccc(O)c(OC)c3)cc12 | 32.8

Biological target: not listed separately
Experiment: Inhibition of alpha-glucosidase (unknown origin)
Parameters: species or system Homo sapiens
Conditions: not given

SMILES | IC50 [µM]
OC/C=C/c1ccc2c(c1)O[C@H](c1ccc3c(c1)O[C@@H](c1ccc(O)c(O)c1)[C@H](CO)O3)[C@@H](CO)O2 | 0.62
COc1cc([C@@H](O)[C@@H](CO)Oc2c(OC)cc([C@@H]3OC[C@@H]4[C@H]3CO[C@H]4c3cc(OC)c(O)c(OC)c3)cc2OC)ccc1O | 15.4
COc1cc([C@@H](O)[C@@H](CO)Oc2ccc([C@@H]3OC[C@@H]4[C@H]3CO[C@H]4c3ccc(O)c(OC)c3)cc2OC)ccc1O | 3.05
COc1cc([C@@H](O)[C@H](CO)Oc2ccc([C@H]3OC[C@H]4[C@@H]3CO[C@@H]4c3ccc(O)c(OC)c3)cc2OC)ccc1O | 5.17
COc1cc([C@H]2OC[C@H]3[C@@H]2CO[C@@H]3c2ccc(O[C@H](CO)[C@@H](O)c3ccc(O)c(OC)c3)c(OC)c2)ccc1O | 6.73
COc1cc(O)cc([C@@H]2c3c(cc(OC)c4c3[C@H](CO)[C@H](c3ccc(O)c(OC)c3)O4)C[C@H](CO)[C@H]2CO)c1 | 5.17

System: SH-SY5Y
Experiment: Induction of apoptosis in human SH-SY5Y cells assessed as increase in caspase-3 activity at 25 uM incubated for 72 hrs by colorimetric assay relative to control
Format: functional
Conditions: not given

SMILES | Activity [%]
COc1cc([C@@H](O)[C@@H](CO)Oc2ccc([C@@H](O)[C@H](CO)Oc3c(OC)cc(CCCO)cc3OC)cc2OC)ccc1O | 77.58
COc1cc([C@@H]2c3cc(O[C@H](CO)[C@@H](O)c4ccc(O)c(OC)c4)c(OC)cc3C[C@H](CO)[C@@H]2CO)ccc1O | 79.36
COc1cc([C@@H]2c3cc(O[C@H](CO)[C@H](O)c4ccc(O)c(OC)c4)c(OC)cc3C[C@H](CO)[C@H]2CO)ccc1O | 80.72
COc1cc([C@@H](OC)[C@@H](CO)Oc2c(OC)cc([C@@H]3Oc4c(OC)cc([C@H](O)[C@@H](O)CO)cc4[C@H]3CO)cc2OC)ccc1O | 90.74

Biological target: Acetylcholinesterase (Homo sapiens, UniProt P22303)
Experiment: Inhibition of AChE (unknown origin)
Conditions: not given

Sequence of Acetylcholinesterase (P22303 whole entry): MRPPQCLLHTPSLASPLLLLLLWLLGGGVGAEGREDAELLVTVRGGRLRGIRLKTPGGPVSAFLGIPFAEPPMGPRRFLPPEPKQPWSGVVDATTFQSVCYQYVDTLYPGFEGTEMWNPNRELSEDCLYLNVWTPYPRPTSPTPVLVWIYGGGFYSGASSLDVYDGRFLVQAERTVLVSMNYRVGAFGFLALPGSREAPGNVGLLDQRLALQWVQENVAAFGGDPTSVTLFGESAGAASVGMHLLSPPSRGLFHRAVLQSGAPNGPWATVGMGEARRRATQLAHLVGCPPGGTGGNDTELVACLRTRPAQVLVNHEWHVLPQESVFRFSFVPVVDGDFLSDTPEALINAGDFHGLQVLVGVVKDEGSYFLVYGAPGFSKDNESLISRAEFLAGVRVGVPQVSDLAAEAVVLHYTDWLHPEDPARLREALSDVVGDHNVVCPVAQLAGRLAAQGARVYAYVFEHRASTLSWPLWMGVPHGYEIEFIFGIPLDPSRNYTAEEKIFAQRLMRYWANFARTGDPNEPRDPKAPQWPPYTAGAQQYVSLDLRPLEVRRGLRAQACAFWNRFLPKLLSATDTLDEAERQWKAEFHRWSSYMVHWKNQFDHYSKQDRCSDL

SMILES | IC50 [µM]
C=CCc1ccc(Oc2cc(CC=C)cc(-c3cc(CC=C)ccc3O)c2O)cc1 | 10
C=CCc1ccc(O)c(-c2cc(CC=C)cc(-c3cc(CC=C)ccc3O)c2O[C@H]2CC(C)(C)[C@@H]3CC[C@]4(C)C[C@]23CC[C@H]4O)c1 | 4.58
C=CCc1ccc(O)c(-c2cc(CC=C)cc(-c3cc(CC=C)ccc3O)c2O[C@@H]2C[C@@H](C(C)C)C=C[C@]2(C)O)c1 | 6.55

System: SH-SY5Y
Experiment: Inhibition of H2O2-induced oxidative stress in human SH-SY5Y cells assessed as residual ROS level at 25 uM incubated for 3 hrs relative to control
Format: functional
Conditions: not given

SMILES | Activity [%]
COc1cc([C@H](OC)[C@@H](CO)Oc2c(OC)cc([C@@H]3Oc4c(OC)cc([C@H](O)[C@@H](O)CO)cc4[C@H]3CO)cc2OC)ccc1O | 76.21
COc1cc([C@@H](O)[C@@H](CO)Oc2c(OC)cc([C@@H]3Oc4c(OC)cc([C@H](O)[C@@H](O)CO)cc4[C@H]3CO)cc2OC)ccc1O | 63.72
COc1cc([C@H](OC)[C@@H](CO)Oc2ccc([C@@H](O)[C@H](CO)Oc3ccc(CCCO)cc3OC)cc2OC)ccc1O | 74.22
COc1cc([C@H](O)[C@@H](CO)Oc2ccc([C@@H](O)[C@@H](CO)Oc3c(OC)cc(CCCO)cc3OC)cc2OC)ccc1O | 77.58
COc1cc([C@@H](O)[C@@H](CO)Oc2c(OC)cc([C@@H]3Oc4c(OC)cc([C@H](O)[C@H](O)CO)cc4[C@H]3CO)cc2OC)ccc1O | 75.63
COc1cc([C@@H](OC)[C@@H](CO)Oc2c(OC)cc([C@@H]3Oc4c(OC)cc([C@H](O)[C@@H](O)CO)cc4[C@H]3CO)cc2OC)ccc1O | 90.74
CCO[C@@H](c1ccc(O)c(OC)c1)[C@H](CO)Oc1ccc([C@H](O)[C@@H](CO)Oc2ccc(CCCO)cc2OC)cc1OC | 71.1
COc1cc([C@H](O)[C@@H](CO)Oc2ccc([C@@H](O)[C@H](CO)Oc3c(OC)cc([C@H](O)[C@@H](O)CO)cc3OC)cc2OC)ccc1O | 75.9
COc1cc([C@@H](O)[C@@H](CO)Oc2ccc([C@H](O)[C@H](CO)Oc3c(OC)cc([C@H](O)[C@H](O)CO)cc3OC)cc2OC)ccc1O | 74.78
COc1cc([C@@H](O)[C@@H](CO)Oc2ccc([C@H](O)[C@H](CO)Oc3c(OC)cc([C@H](O)[C@@H](O)CO)cc3OC)cc2OC)ccc1O | 75.8

System: Ebolavirus
Experiment: Antiviral activity against Ebola virus
Format: functional, organism-based
Conditions: Orthoebolavirus

SMILES | EC50 [µM]
COc1cc([C@@H](O)[C@@H](C)Oc2ccc([C@@H]3O[C@H](c4ccc(O)c(OC)c4)[C@H](C)[C@H]3C)cc2OC)ccc1O | 6.95
COc1ccc([C@@H](O)[C@@H](C)Oc2ccc([C@H]3O[C@H](c4ccc(OC)c(OC)c4)[C@H](C)[C@H]3C)cc2OC)cc1OC | 1.7
